Test [1] addresses T1, Prostaglandin G/H synthase 1 (Ovis aries) (UniProt P05979).
T1 sequence (whole entry): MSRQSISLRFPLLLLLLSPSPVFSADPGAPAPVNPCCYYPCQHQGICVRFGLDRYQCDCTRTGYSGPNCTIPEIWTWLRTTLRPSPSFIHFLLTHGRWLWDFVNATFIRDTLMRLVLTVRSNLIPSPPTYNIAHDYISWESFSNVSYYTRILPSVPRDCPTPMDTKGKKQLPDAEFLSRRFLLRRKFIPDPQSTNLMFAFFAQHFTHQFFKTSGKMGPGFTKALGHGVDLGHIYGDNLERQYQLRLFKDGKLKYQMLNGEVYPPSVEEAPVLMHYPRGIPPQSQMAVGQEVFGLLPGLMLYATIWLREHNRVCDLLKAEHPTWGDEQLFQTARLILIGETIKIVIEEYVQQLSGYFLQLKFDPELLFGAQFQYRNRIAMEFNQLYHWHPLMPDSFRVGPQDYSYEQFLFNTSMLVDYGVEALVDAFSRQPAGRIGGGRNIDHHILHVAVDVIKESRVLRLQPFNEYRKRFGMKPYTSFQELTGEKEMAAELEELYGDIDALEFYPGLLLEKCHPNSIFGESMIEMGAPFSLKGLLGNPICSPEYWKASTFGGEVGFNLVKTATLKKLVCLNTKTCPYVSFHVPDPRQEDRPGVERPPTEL
Briefly: Inhibition of ovine COX1 using arachidonic acid as substrate at 30 uM preincubated for 10 mins before substrate addition measured after 5 mins by EIA.

Test [2] concerns the target T2, Prostaglandin G/H synthase 2 (Ovis aries) (UniProt P79208).
T2 sequence (whole entry): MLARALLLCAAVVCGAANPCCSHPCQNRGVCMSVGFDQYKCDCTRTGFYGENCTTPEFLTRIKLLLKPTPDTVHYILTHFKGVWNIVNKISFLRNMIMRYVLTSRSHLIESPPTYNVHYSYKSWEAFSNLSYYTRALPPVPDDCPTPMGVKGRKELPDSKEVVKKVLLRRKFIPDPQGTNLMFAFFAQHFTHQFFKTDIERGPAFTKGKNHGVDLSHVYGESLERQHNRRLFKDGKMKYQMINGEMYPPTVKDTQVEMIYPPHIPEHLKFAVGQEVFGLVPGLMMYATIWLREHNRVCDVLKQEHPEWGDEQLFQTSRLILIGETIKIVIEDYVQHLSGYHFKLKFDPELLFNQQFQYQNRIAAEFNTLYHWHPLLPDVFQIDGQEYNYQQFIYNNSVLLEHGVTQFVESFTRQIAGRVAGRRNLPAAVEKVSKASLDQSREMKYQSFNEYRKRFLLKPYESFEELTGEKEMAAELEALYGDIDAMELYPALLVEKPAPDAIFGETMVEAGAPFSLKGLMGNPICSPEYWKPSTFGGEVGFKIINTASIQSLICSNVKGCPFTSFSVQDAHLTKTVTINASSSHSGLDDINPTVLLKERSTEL
The settings on record: 30 uM.
Description: Inhibition of ovine COX2 using arachidonic acid as substrate at 30 uM preincubated for 10 mins before substrate addition measured after 5 mins by EIA

In test [3] the target is T3, Prostaglandin G/H synthase 1 (Ovis aries, UniProt P05979).
T3 sequence (P05979 whole entry): T1 sequence (whole entry)
Briefly: Inhibition of ovine COX1 using arachidonic acid as substrate preincubated for 10 mins before substrate addition measured after 5 mins by EIA.

Test [4] has as its system Rattus norvegicus. Description: Antiinflammatory activity in Sprague-Dawley rat assessed as inhibition of carrageenan-induced paw edema at 150 umol/kg, po administered 1 hr before carrageenan challenge measured after 3 hrs. It counts as functional. Background: The carrageenan paw model is a standard test of acute inflammation.
Test [5] has as its system Rattus norvegicus. Briefly: Antiinflammatory activity in Sprague-Dawley rat assessed as inhibition of carrageenan-induced paw edema at 150 umol/kg, po administered 1 hr before carrageenan challenge measured after 5 hrs. It counts as functional.

Consider `CC(=O)c1c(C)cc2cccc(O)c2c1OCc1ccccc1Br`, for which the inhibition (commonly how much of the control response was suppressed) was 37.2% in test [1] and 67.5% in test [2].
Turning to `CC(=O)c1c(C)cc2cccc(OC(C)C)c2c1O`, the inhibition in test [1] is 70.9%; in test [2], 62.6%.
For the compound `C=CCOc1cccc2c1C(=O)c1c(OCC=C)cc(C)cc1C2=O`, the inhibition in test [1] is 44.3%; in test [2], 81.5%. The IC50 (usually the concentration that gives 50% inhibition) in test [3] is above 30 µM. For the same compound, the figures for the inhibition in vivo at 150 µmol/kg in test [4] and in test [5] were 35.6% and 50.9%, respectively.
Take `Cc1cc(OCc2cccc(Cl)c2)c2c(c1)C(=O)c1cccc(OCc3cccc(Cl)c3)c1C2=O`: the inhibition was 25.4% in test [1] and 61% in test [2].
For the compound `CC(=O)c1c(C)cc2cccc(OCc3ccccc3)c2c1O`, the inhibition in test [1] came to 83.4%; in test [2], 89.9%. The same compound showed an IC50 in test [3] of 15.2 µM. Besides, the inhibition in vivo (usually the change of the read-out against control, counted positive when it falls) at 150 µmol/kg in test [4] amounted to 30.3%; in test [5], 54.2%.
`CC(C)Cc1ccc(C(C)C(=O)O)cc1` (stereo not drawn) [IBUPROFEN]: the inhibition in vivo at 150 µmol/kg in test [4] was determined as 32.3%; in test [5] it was 43.5%.
Regarding `CC(=O)c1c(C)cc2cccc(O)c2c1O` [NEPODIN], the inhibition came out at 68.2% in test [1] and 59.4% in test [2]. Also, in test [3], the IC50 was 27.4 µM.
For the compound `COCOc1c(C(C)=O)c(C)cc2cccc(O)c12`, the values for the inhibition in test [1] and in test [2] were 67.1% and 61.5%, respectively.
Consider `Cc1cc(OCc2ccc(I)cc2)c2c(c1)C(=O)c1cccc(OCc3ccc(I)cc3)c1C2=O`, for which the values for the inhibition in test [1] and in test [2] were 64.2% and 77.8%, respectively. The compound also displayed an IC50 in test [3] above 30 µM. Also, the inhibition in vivo at 150 µmol/kg in test [4] was determined as 36.1%; in test [5], 54.6%.
On to `CCCCOc1c(C(C)=O)c(C)cc2cccc(O)c12`, for which the inhibition in test [1] was determined as 40.2%; in test [2], 37.9%.
The matching figures for `CCCOc1cccc2c1C(=O)c1c(OCCC)cc(C)cc1C2=O`: 39.6% and 58.7%.
In the case of `COc1c(C(C)=O)c(C)cc2cccc(O)c12`, the inhibition was 65.5% in test [1] and 55.5% in test [2].
The corresponding values for `CC(=O)c1c(C)cc2cccc(O)c2c1OCc1cccc(Cl)c1` are 34.9% and 64.9%.
In the case of `CC(=O)c1c(C)cc2cccc(O)c2c1OCc1ccccc1`, the inhibition in test [1] came out at 60.2%; in test [2] it was 68.2%.
For `CCCCOc1cccc2c1C(=O)c1c(OCCCC)cc(C)cc1C2=O`, the inhibition in test [1] was 26%; in test [2], 42%.
For `CCOc1cccc2cc(C)c(C(C)=O)c(O)c12`, the figures for the inhibition in test [1] and in test [2] were 62.1% and 54.2%, respectively.
For the compound `CC(=O)c1c(C)cc2cccc(O)c2c1OC(C)C`, the inhibition in test [1] worked out at 62.2%; in test [2], 54.9%.
Regarding `COc1cccc2c1C(=O)c1c(OC)cc(C)cc1C2=O`, the inhibition is 59.2% in test [1] and 62.1% in test [2].
The matching figures for `CCCCOc1cccc2cc(C)c(C(C)=O)c(O)c12`: 28.5% and 31.9%.
On to `CC(=O)c1c(C)cc2cccc(OCc3cccc(Cl)c3)c2c1O`, for which the figures for the inhibition in test [1] and in test [2] were 67.1% and 82.1%, respectively. Also, the IC50 in test [3] is 22.2 µM. Besides, the figures for the inhibition in vivo at 150 µmol/kg in test [4] and in test [5] were 26.6% and 37%, respectively.
`Cc1cc(O)c2c(c1)C(=O)c1cccc(O)c1C2=O` [CHRYSOPHANOL]: the inhibition worked out at 29.4% in test [1] and 42.1% in test [2]. This compound also showed an IC50 in test [3] of 46.2 µM.
As for `CCCOc1c(C(C)=O)c(C)cc2cccc(O)c12`, the figures for the inhibition in test [1] and in test [2] were 51.4% and 47%, respectively.
On to `Cc1cc(OCc2ccccc2Br)c2c(c1)C(=O)c1cccc(OCc3ccccc3Br)c1C2=O`, for which the inhibition in test [1] came to 27.2%; in test [2] it was 62%.
For the compound `CCOc1c(C(C)=O)c(C)cc2cccc(O)c12`, the inhibition in test [1] worked out at 58.4%; in test [2], 42.9%.
Regarding `Cc1cc(OCc2ccccc2)c2c(c1)C(=O)c1cccc(OCc3ccccc3)c1C2=O`, the inhibition is 41.4% in test [1] and 76.5% in test [2]. The compound also returned an IC50 in test [3] above 30 µM. The inhibition in vivo at 150 µmol/kg amounted to 28.2% in test [4] and 45.1% in test [5].
Regarding `COc1cccc2cc(C)c(C(C)=O)c(O)c12`, the inhibition in test [1] worked out at 69.8%; in test [2], 61.7%.
`COCOc1cccc2cc(C)c(C(C)=O)c(O)c12`: the inhibition came to 80.6% in test [1] and 75% in test [2]. Moreover, the IC50 in test [3] stood at 17.2 µM. In addition, the inhibition in vivo at 150 µmol/kg in test [4] came out at 36.4%; in test [5] it was 55.8%.
In the case of `CCOc1cccc2c1C(=O)c1c(OCC)cc(C)cc1C2=O`, the inhibition was determined as 43.7% in test [1] and 55.5% in test [2].
As for `CC(=O)c1c(C)cc2cccc(OCc3ccccc3Br)c2c1O`, the inhibition came to 63.6% in test [1] and 83.1% in test [2]. For the same compound, in test [3], the IC50 stood at 24.5 µM. Further, the inhibition in vivo at 150 µmol/kg in test [4] amounted to 25.5%; in test [5], 46.5%.
For the compound `CCCOc1cccc2cc(C)c(C(C)=O)c(O)c12`, the inhibition in test [1] was determined as 53.5%; in test [2] it was 35.4%.

Source of the values: ChEMBL document CHEMBL3259581 (Eur J Med Chem, 2014).
